# Test results as given in patent US11999739B2, “Antimicrobials methods of making and using the same” (BIOVERSYS AG, priority 2016, dated 2024).
# What was measured:
# [1] = system: Escherichia coli strain ATCC25922; assay: Standard microdilution MIC assay, E. coli; assay type: cell-based
# Protocol: (§1) The in vitro activity of the compounds of the present disclosure can be determined. Antimicrobial testing is typically performed to determine the minimum inhibitory concentration (MIC). Minimum inhibitory concentrations (MICs) are determined by the microdilution method in a final volume of 100 μl according to protocols outlined by The Clinical and Laboratory Standards Institute (CLSI). Performance standards for reference strains are assessed within the same experimental design to maintain quality control. See, for example, Clinical Laboratory Standards Institute: Methods for dilution antimicrobial susceptibility tests for bacteria that grow aerobically M7-A8. Approved Standard-Eighth Edition. Wayne, PA: CLSI; December 2008; and Clinical Laboratory Standards Institute: Performance Standards for Antimicrobial Susceptibility Testing M100-S20; Approved Standard-Twentieth Edition. Wayne, PA: CLSI; June 2010.
# (§2) The compounds of the present disclosure were tested for antimicrobial activity. The Compounds 1-293 were run against Escherichia coli (E co/i) strain ATCC25922 and against Staphylococcus aureus (S. aureus) 11540 strain using a standard microdilution assay to determine minimum inhibitory concentrations (MICs). […] It will be recognized by one skilled in the art that the compounds can be assessed against other bacterial organisms and that the presentation of data for activity against Escherichia coli and Staphylococcus aureus are illustrative and in no way is intended to limit the scope of the present disclosure. The compounds of the present disclosure can be assayed against a range of other microorganisms depending upon the performance activity desired to be gathered. Furthermore, the “+” and “−” representation and the selection of a cutoff value of 16 micrograms/mL is also illustrative and in no way is intended to limit the scope of the present disclosure.
# [2] = system: Staphylococcus aureus (S. aureus) 11540 strain; assay: Standard microdilution MIC assay, S. aureus; assay type: cell-based
# Protocol: as §1, §2
MIC [1] [µg/mL],MIC [2] [µg/mL],SMILES
≤ 16,≤ 16,COC[C@H](N)CCCc1cc(-c2cc3cn(-c4ccc([C@@H]5CCC[C@@H](CCNC(C)=N)N5)c(SC)c4)c(=O)nc3[nH]2)cc(C(F)(F)F)c1 [Compound 202]
≤ 16,≤ 16,CSc1cc(-n2cc3cc(-c4cc(CCC[C@H](C)N)cc(C(F)(F)F)c4)[nH]c3nc2=O)ccc1[C@@H]1CCC[C@@H](CCNC(C)=N)N1CCCF [Compound 292]
≤ 16,≤ 16,CC(=N)NCC[C@H](CNc1ncc[nH]1)N[C@@H](C)c1ccc(-n2cc3cc(-c4cc(CCC[C@H](C)N)cc(Cl)c4F)[nH]c3nc2=O)cc1 [Compound 165]
≤ 16,≤ 16,COC[C@H](N)CCCc1cc(OC(F)(F)F)c(F)c(-c2cc3cn(-c4ccc([C@@H]5CCC[C@@H](CCNC(C)=N)N5)c(OC)c4)c(=O)nc3[nH]2)c1 [Compound 197]
≤ 16,≤ 16,C[C@H](N)CCCc1cc(Cl)c(F)c(-c2cc3cn(-c4ccc([C@@H]5CCC[C@@H](CCNC(=N)CF)N5C)cc4)c(=O)nc3[nH]2)c1 [Compound 108]
≤ 16,≤ 16,CC(=N)NCCCN[C@@H](C)c1ccc(-n2cc3cc(-c4cc(CCC[C@H](C)N)cc(Cl)c4F)[nH]c3nc2=O)cc1F [Compound 93]
≤ 16,≤ 16,CC(=N)NCC[C@@H]1CCC[C@@H](c2ccc(-n3cc4cc(-c5cc(CCC[C@H](C)N)cc(Cl)c5F)[nH]c4nc3=O)cc2)N1Cc1cocn1 [Compound 278]
≤ 16,≤ 16,COC[C@H](N)CCCc1cc(Cl)c(F)c(-c2cc3cn(-c4ccc([C@@H]5CCC[C@@H](CCNC(C)=N)N5)nc4)c(=O)nc3[nH]2)c1 [Compound 358]
≤ 16,≤ 16,CSc1cc(-n2cc3cc(-c4cc(CCC[C@@H](N)CF)cc(Cl)c4F)[nH]c3nc2=O)ccc1[C@@H]1CCC[C@@H](CCNC(C)=N)N1 [Compound 126]
≤ 16,≤ 16,CC(=N)NCC[C@@H]1CCC[C@@H](c2ccc(-n3cc4cc(-c5cc(CCC(F)(F)CN)cc(Cl)c5F)[nH]c4nc3=O)cc2)N1 [Compound 90]
≤ 16,≤ 16,CC(=N)NCC[C@@H]1CCC[C@@H](c2ccc(-n3cc4cc(-c5cc(CCC[C@@H](N)C6CC6)cc(C(F)(F)F)c5)[nH]c4nc3=O)cc2)N1CCCF [Compound 330]
≤ 16,≤ 16,CC(=N)NCC[C@@H]1CCC[C@@H](c2ccc(-n3cc4cc(-c5cc(CCC[C@@H](N)C6CC6)cc(C(F)(F)F)c5F)[nH]c4nc3=O)cc2F)N1 [Compound 228]
≤ 16,≤ 16,C=C[C@@H](N)CCCc1cc(Cl)c(F)c(-c2cc3cn(-c4ccc([C@H](C)NCCCNC(C)=N)c(F)c4)c(=O)nc3[nH]2)c1 [Compound 92]
≤ 16,≤ 16,CSc1cc(-n2cc3cc(-c4cc(CCC[C@@H](N)C5CC5)cc(OC(F)(F)F)c4F)[nH]c3nc2=O)ccc1[C@@H]1CCC[C@@H](CCNC(C)=N)N1 [Compound 252]
≤ 16,≤ 16,C=C[C@H](N)CCCc1cc(Cl)c(F)c(-c2cc3cn(-c4ccc([C@@H]5COC[C@@H](CCNC(=N)CF)N5)cc4)c(=O)nc3[nH]2)c1 [Compound 81]
≤ 16,≤ 16,C=C[C@@H](N)CCCc1cc(Cl)c(F)c(-c2cc3cn(-c4ccc(CNCCCNC(C)=N)c(F)c4)c(=O)nc3[nH]2)c1 [Compound 70]
≤ 16,≤ 16,CC(=N)NCC[C@@H]1CCC[C@@H](c2ccc(-n3cc4cc(-c5cc(CCC[C@@H](N)C6CC6)cc(Cl)c5F)[nH]c4nc3=O)cc2F)N1CCCF [Compound 332]
≤ 16,≤ 16,C=C[C@@H](CCNC(C)=N)NCc1ccc(-n2cc3cc(-c4cc(CCC[C@@H](N)COC)cc(Cl)c4F)[nH]c3nc2=O)cc1 [Compound 187]
≤ 16,≤ 16,CC(=N)NCC[C@@H]1CCC[C@@H](c2c(F)cc(-n3cc4cc(-c5cc(CCC[C@@H](N)C6CC6)cc(Cl)c5F)[nH]c4nc3=O)cc2F)N1 [Compound 247]
≤ 16,≤ 16,CC(=N)NCC[C@@H]1CCC[C@@H](c2ccc(-n3cc4cc(-c5cc(CCC[C@H](C)N)cc(Cl)c5F)[nH]c4nc3=O)cc2)N1Cc1c(C)ncn1C [Compound 288]
≤ 16,≤ 16,C=C[C@@H](CCNC(C)=N)NCc1ccc(-n2cc3cc(-c4cc(CCC[C@@H](N)C(F)F)cc(Cl)c4F)[nH]c3nc2=O)cc1 [Compound 140]

MIC [1] [µg/mL],MIC [2] [µg/mL],SMILES
≤ 16,≤ 16,C[C@H](NCCCNC(=N)CF)c1ccc(-n2cc3cc(-c4cc(CCC[C@@H](N)CO)cc(Cl)c4F)[nH]c3nc2=O)cc1F [Compound 125]
≤ 16,≤ 16,CN=C(C)NCC[C@@H]1CCC[C@@H](c2ccc(-n3cc4cc(-c5cc(CCC[C@H](C)N)cc(Cl)c5F)[nH]c4nc3=O)cc2)N1 [Compound 283]
≤ 16,≤ 16,CC(=N)NCCCNCc1ccc(-n2cc3cc(-c4cc(CCCC(C)(C)N)cc(Cl)c4F)[nH]c3nc2=O)cc1F [Compound 65]
≤ 16,≤ 16,CC(=N)NCC[C@@H]1CCC[C@@H](c2ccc(-n3cc4cc(-c5cc(CCC[C@@H](N)CN)cc(Cl)c5F)[nH]c4nc3=O)cc2)N1 [Compound 289]
≤ 16,≤ 16,CSc1cc(-n2cc3cc(-c4cc(CCC[C@@H](N)C5CC5)cc(Cl)c4F)[nH]c3nc2=O)cc(F)c1[C@@H]1CCC[C@@H](CCNC(C)=N)N1CCCF [Compound 338]
≤ 16,≤ 16,C=C[C@@H](CCNC(C)=N)NCc1ccc(-n2cc3cc(-c4cc(CCC[C@@H](N)CC(N)=O)cc(Cl)c4F)[nH]c3nc2=O)cc1 [Compound 157]
≤ 16,≤ 16,COc1cc(-n2cc3cc(-c4cc(CCC[C@@H](N)CO)cc(C(F)(F)F)c4F)[nH]c3nc2=O)cc(F)c1[C@@H]1CCC[C@@H](CCNC(C)=N)N1 [Compound 323]
≤ 16,≤ 16,CC(=N)NCC[C@@H]1CCC[C@@H](c2ccc(-n3cc4cc(-c5cc(CCC[C@H](C)N)cc(Cl)c5F)[nH]c4nc3=O)cc2)N1CCc1cccnc1 [Compound 261]
≤ 16,≤ 16,CC(=N)NCC[C@@H]1CCC[C@@H](c2ccc(-n3cc4cc(-c5cc(CCC[C@@H](N)CO)cc(OC(F)(F)F)c5F)[nH]c4nc3=O)cc2OC(F)(F)F)N1 [Compound 231]
≤ 16,≤ 16,COC[C@H](N)CCCc1cc(-c2cc3cn(-c4ccc([C@@H]5CCC[C@@H](C[C@@H](C)NC(C)=N)N5)cc4)c(=O)nc3[nH]2)c(F)c(C(F)(F)F)c1 [Compound 339]
≤ 16,≤ 16,COC[C@H](N)CCCc1cc(-c2cc3cn(-c4ccc([C@@H]5CCC[C@@H](CCNC(C)=N)N5)c(OC)c4)c(=O)nc3[nH]2)c(F)c(C(F)(F)F)c1 [Compound 194]
≤ 16,≤ 16,COC[C@H](N)CCCc1cc(OC(F)(F)F)c(F)c(-c2cc3cn(-c4cc(F)c([C@@H]5CCC[C@@H](CCNC(C)=N)N5)c(F)c4)c(=O)nc3[nH]2)c1 [Compound 280]
> 16,> 16,CC(=N)NCC[C@@H]1COC[C@@H](c2ccc(-n3cc4cc(-c5cc(CCC[C@@H](N)C(F)(F)F)cc(Cl)c5F)[nH]c4nc3=O)cc2)N1 [Compound 66]
≤ 16,≤ 16,CC(=N)NCC[C@@H]1CCC[C@@H](c2ccc(-n3cc4cc(-c5cc(CCC[C@H](C)N)cc(Cl)c5F)[nH]c4nc3=O)cc2)N1C [Compound 109]
≤ 16,≤ 16,CC(=N)NCC[C@@H]1CCC[C@@H](c2ccc(-n3cc4cc(-c5cc(CCC[C@@H](N)CF)cc(C(F)(F)F)c5)[nH]c4nc3=O)cc2OC(F)(F)F)N1 [Compound 215]
≤ 16,≤ 16,CC(=N)NCC[C@@H]1CCC[C@@H](c2ccc(-n3cc4cc(-c5cc(CCC[C@@H](N)CF)cc(C(F)(F)F)c5)[nH]c4nc3=O)cc2)N1 [Compound 204]
≤ 16,≤ 16,C[C@H](N)CCCc1cc(Cl)c(F)c(-c2cc3cn(-c4ccc([C@H](C)N[C@@H](CO)CCNC(=N)CF)cc4)c(=O)nc3[nH]2)c1 [Compound 97]
≤ 16,≤ 16,C[C@H](N)CCCc1cc(Cl)c(F)c(-c2cc3cn(-c4ccc([C@@H]5CNC[C@H](CCNC(=N)CF)N5)cc4)c(=O)nc3[nH]2)c1 [Compound 49]
≤ 16,≤ 16,C=C[C@@H](CCNC(C)=N)N[C@@H](C)c1ccc(-n2cc3cc(-c4cc(CCC[C@@H](N)C5CC5)cc(Cl)c4F)[nH]c3nc2=O)cc1 [Compound 164]
≤ 16,≤ 16,C=C[C@@H](CCNC(=N)CF)NCc1ccc(-n2cc3cc(-c4cc(CCC[C@@H](N)CO)cc(Cl)c4F)[nH]c3nc2=O)cc1 [Compound 2]
≤ 16,≤ 16,CC(=N)NCC[C@@H]1CCC[C@@H](c2ccc(-n3cc4cc(-c5cc(CCC[C@@H](N)C6CC6)cc(Cl)c5F)[nH]c4nc3=O)cc2)N1CCCF [Compound 334]
